Source: patent US10765693B2, “Polymorphic compounds and uses thereof” (Astrocyte Pharmaceuticals, Inc., priority 2018, dated 2020)

What was measured:
Type in all cases: physicochemical
[1] = Dynamic Vapour Sorption (DVS) analysis; settings: for moisture gain observed during the moisture sorption: adsorption cycle 5 to 95% RH; for crystalline form after the DVS analysis (XRPD before/after): sample exposed up to 95% RH and down to 5% RH
Experimental: Dynamic Vapour Sorption (DVS) analysis was carried out using a TA Instruments Q5000 Dynamic Vapor Sorption analyzer. The instrument was calibrated with standard weights and a sodium bromide standard for humidity. Approximately 20 mg of sample was loaded into a metal-coated quartz pan for analysis. The sample was analyzed at 25° C. with a maximum equilibration time of one hour in 10% relative humidity (RH) steps from 5 to 95% RH (adsorption cycle) and from 95 to 5% RH (desorption cycle). The movement from one step to the next occurred either after satisfying the equilibrium criterion of 0.01% weight change or, if the equilibrium criterion was not met, after one hour. The percent weight change values were calculated using Microsoft Excel®. The temperature for the DVS analysis can impact the outcome of the results.

[2] = Relative stability of Form A and Form B slurried in organic/water solvent systems of differing water activity; settings: mixture of the two forms slurried
From the text: If the solvent system has higher than or equal water activity of 0.72, and the two crystalline forms are mixed, the mixture converts to Form A. The solvent systems can be mixture of any organic solvents and organic solvents containing water.
The solvent systems can be mixture of any organic solvents and organic solvents containing water.

[3] = Stability when milled in the presence of water or stirred (slurried) in water; settings: milled with water; stirred in water between room temperature and 60° C.
Experimental: Milling was performed using a Retsch Mill. About 20 mg of material was placed into a plastic grinding cup followed by 10 μL of water and a stainless-steel ball. The sample was then milled at 100% power for 20 minutes.
To a plastic grinding cup was added 18.4 mg of Compound A and 10 μL of water. A stainless-steel ball was added. The sample was then milled on a Retsch mill at 100% power for 20 minutes at room temperature.
(§1) To a 20 mL glass vial was added 200.0 mg of Compound A and 3.0 mL of water. A magnetic stir bar was added and the vial was capped. The vial was placed on a heating/stirring plate and the slurry was stirred magnetically for 7 days at ambient temperature. The vial was centrifuged for 10 minutes and the mother liquor was decanted. A dry air purge was directed into the vial for 10 minutes to dry the solid. The vial was then placed in a room temperature vacuum desiccator for 2 hours.
as §1, with “plate set at 60° C.” for “plate”, “3 days.” for “7 days at ambient temperature.”

[4] = DVS, 25° C., desorption cycle 95 to 5% RH

Row | stability under various humidity conditions ([1]; DVS, 5 to 95% RH) | hygroscopicity based on the DVS data ([1]; DVS, 25° C., 5 to 95% RH) | moisture gain observed during the moisture sorption ([1]; DVS, 25° C.) | moisture loss observed during the desorption cycle [1, 4] | crystalline form after the DVS analysis (XRPD before/after) [1] | water activity of solvent system at which this form is the more stable of Forms A and B [2] | stability when milled in the presence of water or stirred in water [3] | moisture loss during the desorption cycle (in words) [1, 4] | SMILES
1 | stable under various humidity conditions | moderately hygroscopic | approximately 9.3% | about 2% | remained unchanged | ≥ 0.72 | stable |  | CSc1nc(N)c2ncn([C@H]3[C@H](O)[C@H](O)[C@]4(CO)C[C@H]34)c2n1 [Form A of compound A]
2 |  | moderately hygroscopic | approximately 6.4% |  | remained unchanged | less than or equal to 0.63 |  | lost all of the moisture gain | CSc1nc(N)c2ncn([C@H]3[C@H](O)[C@H](O)[C@]4(CO)C[C@H]34)c2n1 [Form B of compound A]
